Data: patent publication US11357748B2, “Methods for treating mendelian disorders of the epigenetic machinery” (THE JOHNS HOPKINS UNIVERSITY, priority 2014, dated 2022)
Entries after “also recorded” stand apart in the source; their conditions may differ. Where two headings read alike, the source gives them in different places.

What was measured:
HDAC = conditions: Phiel et al. (2001); cited from earlier work
[1] = tested on: H4 acetylation machinery (H4ac indicator); assay: H4 acetylation (H4ac) indicator reporter allele, GFP fluorescence by FACS in stably transfected T293/HEK293 cells; format: cell-based; conditions: FIG. 18C, 18D, 19A, 19B, 20
Text: The acetyl reporter protein quantifies the activity of the acetylation machinery (acetylation of H4 specifically at the 5th, 8th, 12th and 16th Lysine's) and comprises an H4 tail on one end (the target for acetylation) and a TBP associated factor II (TAFII) bromodomain on the other end of the reporter protein (FIG. 5A). The TAFII bromodomain only recognizes and binds to the acetylated H4 tail, resulting in reconstitution of GFP structure and function (i.e. fluorescence). Therefore, the reporter protein has no fluorescence unless it is acetylated by the acetylation system of the nucleus of the cell.
Epigenetic reporter alleles were synthesized (OriGene, Rockville, Md.) using published sequences for component elements (Baird et al. (1999) Proc. Natl. Acad. Sci. 96:11241-6; Souslova et al. (2007) BMC Biotechnol. 7:37). […] FACS data were analyzed using FlowJo (Tree Star Inc, Ashland, Oreg.). […]
(§1) Epigenetic reporter systems were created that monitor either H4 acetylation or H3K4 trimethylation machinery activity in an effort to determine whether there is an ongoing activity deficiency in cells from Kmt2d^+/βGeo mice (FIG. 18A). Both reporter alleles encode halves of green fluorescent protein separated by a flexible linker region (Baird et al. (1999) Proc. Natl. Acad. Sci. 96: 11241-6) with a histone tail and a histone reader at the N- and C-termini, respectively. […]

[2] = tested on: mouse models of Rubinstein-Taybi syndrome; conditions: cited from earlier work
[3] = tested on: H3K4 trimethylation activity in Kmt2d+/βGeo MEFs; assay: H3K4me3 indicator in murine embryonic fibroblasts (MEFs) from Kmt2d+/βGeo and Kmt2d+/+ mice; format: cell-based, mouse; conditions: Kmt2d+/βGeo MEFs; FIG. 18H, 22A, 23
Text: An H3K4 trimethylation reporter was also created (FIG. 5B). This reporter is based on the H3 tail on one end and the TBP associated factor III (TAFIII) […] on the other end; the TAFIII […] only identifies and binds to trimethylated K4 on H3. When the H3K4 site gets trimethylated, the TAFIII […] can bind to the modified H3 tail and bring the two parts of the separated GFP in close proximity. The activity of the epigenetic modification system can be quantified through fluorescence.
Epigenetic reporter alleles were synthesized (OriGene, Rockville, Md.) using published sequences for component elements (Baird et al. (1999) Proc. Natl. Acad. Sci. 96:11241-6; Souslova et al. (2007) BMC Biotechnol. 7:37). Single nucleotide mutations were created using the QuickChange Lightening kit (Agilent Technologies Inc, Santa Clara, Calif.). For H4ac indicator, K5R, K8R, K12R, K16R and K20R (MUT indicator) were introduced. For H3K4me3 indicator, K4Q and D890A/W891A and M882A (three separate constructs) were introduced. […] FACS data were analyzed using FlowJo (Tree Star Inc, Ashland, Oreg.). […]
as §1, with “respectively. When the histone tail corresponding to either H4 or H3 is modified by acetylation or methylation, respectively, GFP structure and function are reconstituted, as detected by a fluorescent readout (FIG. 18B). The acetyl reporter protein quantifies the activity of the acetylation machinery (acetylation of H4 specifically at sites K5, K8, K12, and K16) and comprises an H4 tail (residues 1-30) on one end and a TATA binding protein (TBP)-associated factor II (TAFII) bromodomain on the other end (FIG. 18A).” for “respectively.”

CCCC(CCC)C(=O)O [valproic acid, 2-Propylpentanoic acid]
HDAC inhibitor activity (HDAC): potent HDACi

O=C(CCCCCCC(=O)Nc1ccccc1)NO [SAHA, N′-hydroxy-N-phenyl-octanediamide]
H4ac indicator fluorescence response to increasing amounts of drug [1]: linear fluorescence response; also recorded: increasing fluorescence; also recorded: increases acetylation of the indicator; also recorded: increased signal | neurological phenotypes in Rubinstein-Taybi mouse models ([2]; intracerebroventricular administration): respond

Nc1ccccc1NC(=O)c1ccc(CNC(=O)OCc2cccnc2)cc1 [MS275, Pyridin-3-ylmethyl N-[[4-[(2-aminophenyl)carbamoyl]phenyl]methyl]carbamate]
H3K4 trimethylation activity in Kmt2d+/βGeo cells upon treatment [3]: enhanced; also recorded: improved

CC(C=CC(=O)NO)=CC(C)C(=O)c1ccc(N(C)C)cc1 (centres unmarked) [trichostatin A, 7-[4-(dimethylamino)phenyl]-N-hydroxy-4,6-dimethyl-7-oxohepta-2,4-dienamide]
neurological phenotypes in Rubinstein-Taybi mouse models ([2]; intraperitoneal administration): respond
